{"source": "patent EP4744649A1", "about": "“SUSTAINED-RELEASE INJECTABLE COMPOSITION FOR TREATING OR PREVENTING NEUROLOGICAL DISORDERS, AND METHOD FOR PREPARING SAME” (Inventage Lab Inc., priority 2023, dated 2025)", "key": {"[1]": {"tested_on": "PTZ-induced seizure rat model", "test": "PTZ (pentylenetetrazole)-induced epileptic seizure model: seizure intensity, grade distribution, mortality", "type": "in vivo, rats", "conditions": "for seizure-induced mortality: 10 animals; for seizure intensity: 60 mg/head IP on D1 and D14 (G2)", "method": "In order to evaluate the seizure-suppressing effect of administration of the microparticles of the present invention in an epilepsy-induced model, administration groups were set up as follows.\nG3 and G4 were administered to rats at different doses using the above-described Example 7.\n(§1) After the completion of acclimatization, the rats were divided into groups. On day 1 (D1), the test substances G1 to G4 were administered intraperitoneally and subcutaneously, and 30 minutes later, PTZ (pentylenetetrazole, Sigma, USA) dissolved in 0.9% sterile saline was administered intraperitoneally at a dose of 37.5 mg/kg to induce epileptic seizures. In the normal group, only the same amount of saline was administered. Then, PTZ was repeatedly administered at time points D2, D3, D5, D7, D14, D21, and D28 to induce epileptic seizures. The intensity of the seizures was graded and evaluated for 30 minutes immediately after PTZ administration at each time point according to the following criteria: [Table 7]"}, "[2]": {"test": "Body weight change in the PTZ seizure study", "type": "in vivo, rats", "conditions": "60 mg/head IP (G2); difference not statistically significant", "method": "as §1\nDuring the test period, body weight continued to increase in all the groups without decrease."}}, "data": [{"smiles": "C=C(C)[C@@H]1CCC(C)=C[C@H]1c1c(O)cc(CCCCC)cc1O", "note": "[CBD solution, cannabidiol]", "values": [{"measurement": "seizure-induced mortality", "setting": "[1]; 60 mg/head IP (G2), until week 3", "value": "no deaths occurred"}, {"measurement": "seizure-induced mortality", "setting": "[1]; 60 mg/head IP (G2), week 4", "value": "three animals died"}, {"measurement": "individuals with severe seizures", "setting": "[1]; 60 mg/head IP (G2), week 2, at the time of additional administration", "value": 10, "unit": "%"}, {"measurement": "individuals with grade-5 seizures", "setting": "[1]; 60 mg/head IP (G2), week 4", "value": "more than half of individuals"}, {"measurement": "seizure intensity", "setting": "[1]; day 1, stages 0 to 6", "value": 2.4, "unit": "grade"}, {"measurement": "seizure intensity", "setting": "[1]; week 1", "value": 3.9, "unit": "grade"}, {"measurement": "seizure intensity", "setting": "[1]; week 2, after additional administration", "value": 2.9, "unit": "grade"}, {"measurement": "seizure intensity", "setting": "[1]; weeks 3 and 4", "value": 4.9, "unit": "grade"}, {"measurement": "weight gain", "setting": "[2]", "value": "slightly smaller than that in the other groups"}]}]}
